Patent US20240247080A1, “GLP1/GIP/NPY2 RECEPTOR TRIPLE AGONISTS” (Boehringer Ingelheim International GmbH, priority 2022, published 2024)
Where two headings read alike, the source gives them in different places. Starred links: 1 amine or outer side, 2 acyl side, 3 side chain; linkers in the order of their positions; H or OH if unused. Non-standard residues stand in square brackets, D forms with d. Groups on a side chain read outwards from the residue. *: point of attachment. C20 diacid = O=C(O)CCCCCCCCCCCCCCCCCCC(=O)*; C18 diacid = O=C(O)CCCCCCCCCCCCCCCCC(=O)*; γGlu = O=C(O)[C@H](CCC(=O)[*:2])N[*:1]; εLys = N[C@@H](CCCCN[*:1])C(=O)[*:2]; AEEA = NCCOCCOCC(=O)O; Aib = CC(C)(N)C(=O)O

Experiments:
Assay type in all cases: cell-based
Conditions in all cases: CreLuc reporter gene assay
hNPY2R = target: T1, hNPY2R (Homo sapiens, UniProt P49146); assay: hNPY2R CreLuc reporter gene assay in 0.5% and 100% plasma
T1 construct: expressed in transfected cells; host or cells: HEK-293 cells carrying a CRE-luciferase reporter gene
T1 sequence (P49146 1-381): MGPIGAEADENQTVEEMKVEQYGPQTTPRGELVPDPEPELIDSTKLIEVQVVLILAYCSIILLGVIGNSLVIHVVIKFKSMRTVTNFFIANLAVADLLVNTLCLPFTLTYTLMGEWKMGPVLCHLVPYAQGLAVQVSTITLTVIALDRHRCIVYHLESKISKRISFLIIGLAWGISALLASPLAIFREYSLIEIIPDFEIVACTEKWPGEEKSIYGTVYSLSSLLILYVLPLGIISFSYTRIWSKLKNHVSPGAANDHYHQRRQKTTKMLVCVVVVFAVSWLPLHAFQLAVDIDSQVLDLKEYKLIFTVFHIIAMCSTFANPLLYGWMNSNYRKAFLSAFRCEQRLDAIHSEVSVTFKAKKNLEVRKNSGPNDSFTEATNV
Method in brief: (§1)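 HEK cells (GLP-1R, NPY2R) or CHO cells (GIPR) carrying a CRE-luciferase reporter, incubated 4 h at 37 °C with peptides in HBSS/20 mM HEPES pH 7.4 plus 0.5% human plasma, or in 100% plasma. Luminescence read; EC50 from 8-point variable-slope sigmoid fits.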

hGLP1R = target: T2, hGLP1R (Homo sapiens, UniProt P43220); assay: hGLP1R CreLuc reporter gene assay in 0.5% and 100% plasma
T2 construct: expressed in transfected cells; host or cells: HEK-293 cells carrying a CRE-luciferase reporter gene
Method in brief: as §1

hGIPR = target: T3, hGIPR (Homo sapiens, UniProt P48546); assay: hGIPR CreLuc reporter gene assay in 0.5% and 100% plasma
T3 construct: expressed in transfected cells; host or cells: CHO cells carrying a CRE-luciferase reporter gene
T3 sequence (P48546 22-466): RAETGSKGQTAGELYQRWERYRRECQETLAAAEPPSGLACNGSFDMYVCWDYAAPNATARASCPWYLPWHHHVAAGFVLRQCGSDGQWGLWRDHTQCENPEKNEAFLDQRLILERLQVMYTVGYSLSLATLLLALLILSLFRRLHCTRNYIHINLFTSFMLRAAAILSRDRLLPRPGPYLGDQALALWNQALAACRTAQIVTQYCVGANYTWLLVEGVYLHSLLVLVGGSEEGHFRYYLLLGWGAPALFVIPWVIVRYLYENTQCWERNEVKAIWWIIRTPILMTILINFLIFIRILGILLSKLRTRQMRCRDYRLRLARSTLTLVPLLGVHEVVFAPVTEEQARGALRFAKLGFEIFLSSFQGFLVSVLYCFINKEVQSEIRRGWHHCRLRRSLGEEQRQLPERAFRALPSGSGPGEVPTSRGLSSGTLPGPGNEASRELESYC
Method in brief: as §1

[1] = 0.5% human plasma, read-out: hNPY2R 0.5% hP
[2] = 100% human plasma, read-out: hNPY2R 100% hP
[3] = 0.5% human plasma, read-out: hGLP1R 0.5% hP
[4] = 0.5% human plasma, read-out: hGIPR 0.5% hP
[5] = 100% human plasma, read-out: hGIPR 100% hP
[6] = 100% human plasma, read-out: hGLP1R 100% hP

T2 sequence (P43220 24-463): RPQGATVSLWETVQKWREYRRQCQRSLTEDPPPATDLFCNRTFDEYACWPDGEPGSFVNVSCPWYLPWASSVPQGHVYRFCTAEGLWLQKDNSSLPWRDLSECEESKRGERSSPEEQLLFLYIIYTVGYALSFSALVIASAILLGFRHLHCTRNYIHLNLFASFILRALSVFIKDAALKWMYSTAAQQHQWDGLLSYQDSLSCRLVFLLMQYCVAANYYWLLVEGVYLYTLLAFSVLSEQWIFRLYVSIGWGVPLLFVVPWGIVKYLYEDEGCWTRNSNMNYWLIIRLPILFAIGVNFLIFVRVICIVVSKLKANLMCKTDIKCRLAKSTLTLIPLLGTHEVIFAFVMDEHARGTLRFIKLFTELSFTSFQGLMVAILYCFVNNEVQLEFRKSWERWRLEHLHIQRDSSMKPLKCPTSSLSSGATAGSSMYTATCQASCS

Molecule	EC50 (hNPY2R; [1])	EC50 (hNPY2R; [2])	EC50 (hGLP1R; [3])	EC50 (hGIPR; [4])	EC50 (hGIPR; [5])	EC50 (hGLP1R; [6])
H-Y[Aib]EGTFTSDYSI[Aib]LEKQAQ[Aib]EFVQWLIK([εLys-γGlu-γGlu-γGlu-γGlu-γGlu-γGlu-C18 diacid])GGPSEGASLRHYYNWLTRQRY-NH2 [Compound 153, Y-Aib-E-G-T-F-T-S-D-Y-S-I-Aib-L-E-K-Q-A-Q-Aib-E-F-V-Q-W-L-I-K(1,3)-GGPSEGASLRHYYNWLTRQRY-NH2.C18DA-gGlu-gGlu-gGlu-gGlu-gGlu-gGlu-eLys(1,2)]	18.9 nM	58.5 nM	0.25 nM	0.22 nM	1.21 nM	–
H-Y[Aib]EGTFTSDYSI[Aib]LEKQAQ[Aib]EFVEWLIK([AEEA-AEEA-γGlu-γGlu-γGlu-γGlu-C20 diacid])GGPSSGASLRHYYNWLTRQRY-NH2 [Compound 205, Y-Aib-E-G-T-F-T-S-D-Y-S-I-Aib-L-E-K-Q-A-Q-Aib-E-F-V-E-W-L-I-K(1,3)-GGPSSGASLRHYYNWLTRQRY-NH2.C20DA-gGlu-gGlu-gGlu-gGlu-OEG-OEG(1,2)]	10.6 nM	–	0.44 nM	0.33 nM	–	–
H-Y[Aib]EGTFTSDYSI[Aib]LEKQAQ[Aib]AFVEWLIK([AEEA-AEEA-γGlu-γGlu-γGlu-γGlu-C20 diacid])GGPSSPASLRHYYNWLTRQRY-NH2 [Compound 175, Y-Aib-E-G-T-F-T-S-D-Y-S-I-Aib-L-E-K-Q-A-Q-Aib-A-F-V-E-W-L-I-K(1,3)-GGPSSPASLRHYYNWLTRQRY-NH2.C20DA-gGlu-gGlu-gGlu-gGlu-OEG-OEG(1,2)]	10.5 nM	48.7 nM	0.1 nM	0.29 nM	1.53 nM	–
H-Y[Aib]EGTFTSDYSI[Aib]LEKQAQ[Aib]AFVEWLIK([γGlu-γGlu-γGlu-γGlu-γGlu-C18 diacid])GGPSSGASLRHYYNWLTRQRY-NH2 [Compound 253, Y-Aib-E-G-T-F-T-S-D-Y-S-I-Aib-L-E-K-Q-A-Q-Aib-A-F-V-E-W-L-I-K(1,3)-GGPSSGASLRHYYNWLTRQRY-NH2.C18DA-gGlu-gGlu-gGlu-gGlu-gGlu(1,2)]	13.4 nM	–	0.08 nM	0.24 nM	0.64 nM	0.74 nM
H-Y[Aib]EGTFTSDYSI[Aib]LESQAQ[Aib]AFVEWLIK([εLys-γGlu-γGlu-γGlu-γGlu-γGlu-γGlu-C20 diacid])GGPSSGASLRHYYNWLTRQRY-NH2 [Compound 121, Y-Aib-E-G-T-F-T-S-D-Y-S-I-Aib-L-E-S-Q-A-Q-Aib-A-F-V-E-W-L-I-K(1,3)-GGPSSGASLRHYYNWLTRQRY-NH2.C20DA-gGlu-gGlu-gGlu-gGlu-gGlu-gGlu-eLys(1,2)]	23.8 nM	–	0.18 nM	0.65 nM	–	–
H-Y[Aib]EGTFTSDYSI[Aib]LEKQAQ[Aib]AFVEWLIK([εLys-γGlu-γGlu-γGlu-γGlu-γGlu-γGlu-C20 diacid])GGPSSGVS[Aib]RHYYNWLTRQRY-NH2 [Compound 38, Y-Aib-E-G-T-F-T-S-D-Y-S-I-Aib-L-E-K-Q-A-Q-Aib-A-F-V-E-W-L-I-K(1,3)-G-G-P-S-S-G-V-S-Aib-R-H-Y-Y-N-W-L-T-R-Q-R-Y-NH2.C20DA-gGlu-gGlu-gGlu-gGlu-gGlu-gGlu-eLys(1,2)]	–	17.8 nM	0.06 nM	–	0.7 nM	–
H-Y[Aib]EGTFTSDYSI[Aib]LEKQAQ[Aib]EFVQWLIK([γGlu-γGlu-γGlu-γGlu-C18 diacid])GGPSEGASLRHYYNWLTRQRY-NH2 [Compound 202, Y-Aib-E-G-T-F-T-S-D-Y-S-I-Aib-L-E-K-Q-A-Q-Aib-E-F-V-Q-W-L-I-K(1,3)-GGPSEGASLRHYYNWLTRQRY-NH2.C18DA-gGlu-gGlu-gGlu-gGlu(1,2)]	12.9 nM	–	0.21 nM	0.26 nM	1.81 nM	10.4 nM
H-Y[Aib]EGTFTSDYSI[Aib]LEKQAQ[Aib]AFVEWLIK([εLys-γGlu-γGlu-γGlu-γGlu-γGlu-C20 diacid])GGPEEGASLRHYYNWLTRQRY-NH2 [Compound 230, Y-Aib-E-G-T-F-T-S-D-Y-S-I-Aib-L-E-K-Q-A-Q-Aib-A-F-V-E-W-L-I-K(1,3)-GGPEEGASLRHYYNWLTRQRY-NH2.C20DA-gGlu-gGlu-gGlu-gGlu-gGlu-eLys(1,2)]	15.4 nM	–	0.29 nM	0.28 nM	1.43 nM	–

Next, values leading:

EC50 (hNPY2R; [1])	EC50 (hNPY2R; [2])	EC50 (hGLP1R; [3])	EC50 (hGIPR; [4])	EC50 (hGIPR; [5])	EC50 (hGLP1R; [6])	Molecule
16.9 nM	–	0.08 nM	0.14 nM	–	2.48 nM	CC[C@H](C)[C@H](NC(=O)[C@H](CC(C)C)NC(=O)[C@H](Cc1c[nH]c2ccccc12)NC(=O)[C@H](CCC(N)=O)NC(=O)[C@@H](NC(=O)[C@H](Cc1ccccc1)NC(=O)[C@H](C)NC(=O)C(C)(C)NC(=O)[C@H](CCC(N)=O)NC(=O)[C@H](C)NC(=O)[C@H](CCC(N)=O)NC(=O)[C@H](CCCCN)NC(=O)[C@H](CCC(=O)O)NC(=O)[C@H](CC(C)C)NC(=O)C(C)(C)NC(=O)[C@@H](NC(=O)[C@H](CO)NC(=O)[C@H](Cc1ccc(O)cc1)NC(=O)[C@H](CC(=O)O)NC(=O)[C@H](CO)NC(=O)[C@@H](NC(=O)[C@H](Cc1ccccc1)NC(=O)[C@@H](NC(=O)CNC(=O)[C@H](CCC(=O)O)NC(=O)C(C)(C)NC(=O)[C@@H](N)Cc1ccc(O)cc1)[C@@H](C)O)[C@@H](C)O)[C@@H](C)CC)C(C)C)C(=O)N[C@@H](CCCCNC(=O)[C@H](CCC(=O)O)NC(=O)[C@H](CCC(=O)O)NC(=O)[C@H](CCC(=O)O)NC(=O)[C@H](CCC(=O)O)NC(=O)[C@H](CCC(=O)O)NC(=O)CCCCCCCCCCCCCCCCC(=O)O)C(=O)NCC(=O)NCC(=O)N1CCC[C@H]1C(=O)N[C@@H](CO)C(=O)N[C@@H](CCC(=O)O)C(=O)NCC(=O)N[C@@H](C)C(=O)N[C@@H](CO)C(=O)N[C@@H](CC(C)C)C(=O)N[C@@H](CCCNC(=N)N)C(=O)N[C@@H](Cc1c[nH]cn1)C(=O)N[C@@H](Cc1ccc(O)cc1)C(=O)N[C@@H](Cc1ccc(O)cc1)C(=O)N[C@@H](CC(N)=O)C(=O)N[C@@H](Cc1c[nH]c2ccccc12)C(=O)N[C@@H](CC(C)C)C(=O)N[C@H](C(=O)N[C@@H](CCCNC(=N)N)C(=O)N[C@@H](CCC(N)=O)C(=O)N[C@@H](CCCNC(=N)N)C(=O)N[C@@H](Cc1ccc(O)cc1)C(N)=O)[C@@H](C)O [Compound 257, Y-Aib-E-G-T-F-T-S-D-Y-S-I-Aib-L-E-K-Q-A-Q-Aib-A-F-V-Q-W-L-I-K(1,3)-GGPSEGASLRHYYNWLTRQRY-NH2.C18DA-E-E-E-E-E(1,2)]
–	53.4 nM	0.09 nM	0.12 nM	–	4.17 nM	H-Y[Aib]EGTFTSDYSI[Aib]LEKQAQ[Aib]AFVQWLIK([AEEA-AEEA-γGlu-γGlu-γGlu-γGlu-γGlu-C18 diacid])GGPESGASLRHYYNWLTRQRY-NH2 [Compound 55, Y-Aib-E-G-T-F-T-S-D-Y-S-I-Aib-L-E-K-Q-A-Q-Aib-A-F-V-Q-W-L-I-K(1,3)-GGPESGASLRHYYNWLTRQRY-NH2.C18DA-gGlu-gGlu-glu-gGlu-gGlu-OEG-OEG(1,2)]
13.3 nM	–	0.4 nM	0.33 nM	–	–	H-Y[Aib]EGTFTSDYSI[Aib]LEKQAQ[Aib]EFVQWLIK([γGlu-γGlu-γGlu-γGlu-γGlu-γGlu-C20 diacid])GGPSEGASLRHYYNWLTRQRY-NH2 [Compound 185, Y-Aib-E-G-T-F-T-S-D-Y-S-I-Aib-L-E-K-Q-A-Q-Aib-E-F-V-Q-W-L-I-K(1,3)-GGPSEGASLRHYYNWLTRQRY-NH2.C20DA-gGlu-gGlu-gGlu-gGlu-gGlu-gGlu(1,2)]
